{
  "source": "patent US8030443B2",
  "about": "“Squamous cell carcinoma antigen-derived peptide binding to HLA-A24 molecule” (Kurume University, priority 2005, dated 2011)",
  "test_system": "peptide-specific IgG in sera of cancer patients and healthy donors",
  "test": "Measurement of anti-peptide IgG in plasma by LUMINEX multiplexed flow cytometric assay",
  "type": "binding, human",
  "experimental": "The levels of anti-peptide immunoglobulin G (IgG) were measured by the LUMINEX™ system (multiplexed flow cytometric assay) as previously reported (Komatsu N, Shichijo S, Nakagawa M, Itoh K. New multiplexed flow cytometric assay to measure anti-peptide antibody: a novel tool for monitoring immune responses to peptides used for immunization. Scand J Clin Lab Invest 2004; 64:1-11). In brief, plasma was incubated with 25 μl of peptide-coupled color-coded beads for 2 hr at room temperature on a plate shaker. After incubation, the mixture was washed with a vacuum manifold apparatus and incubated with 100 μl of biotinylated goat anti-human IgG (γ chain-specific)(BA-3080, Vector Laboratories, Burlingame, Calif., USA) for 1 h at room temperature. The plate was then washed, followed by the addition of 100 μl of streptavidin-PE (S-866, Molecular Probes, Eugene, Oreg., USA) into wells, and was incubated for 30 min at room temperature on a plate shaker. The bound beads were washed three times followed by the addition of 100 μl of Tween-PBS into each well. Fifty μl of sample was detected using the LUMINEX™ system (multiplexed flow cytometric assay). To confirm the specificity of IgG to a SCCA peptide, sample plasma was cultured in plates coated with a corresponding SCCA peptide, or with an irrelevant SCCA peptide. After the operation was repeated three times, the levels of the corresponding SCCA peptide-specific IgG in the resulting supernatant were determined by the LUMINEX™ system (multiplexed flow cytometric assay).\nThese 9 SCCA-derived peptides were screened based on their ability to be recognized by IgG in cancer patients. Peptide-specific IgG was measured by a multiplexed flow cytometric assay (LUMINEX™ (multiplexed flow cytometric assay)). The plasma samples were derived from 35 uterine cervical SCC patients, 10 breast adenocarcinoma patients, 10 pancreatic adenocarcinoma patients, 10 gastric adenocarcinoma, and 6 colon adenocarcinoma patients. The level of fluorescence intensity was judged to be significant when exceeded 100 at an 1/100 dilution.",
  "data": [
    {"sequence": "AYELKIANKL (SCCA 98-107 peptide) [SCCA-derived peptide, position 98-107]", "values": [
      {"measurement": "Total: healthy donors with significant peptide-reactive IgG / donors tested", "setting": "10 healthy donors, significant when fluorescence intensity exceeded 100 at 1/100 dilution", "value": "1/10"},
      {"measurement": "Total: cancer patients with significant peptide-reactive IgG / patients tested", "setting": "71 cancer patients, significant when fluorescence intensity exceeded 100 at 1/100 dilution", "value": "12/71"},
      {"measurement": "Fluorescence intesity", "setting": "serum of Breast Ca. patient #36, 1:100 dilution", "value": 44},
      {"measurement": "Fluorescence intesity", "setting": "serum of Breast Ca. patient #37, 1:100 dilution", "value": 18},
      {"measurement": "Fluorescence intesity", "setting": "serum of Breast Ca. patient #38, 1:100 dilution", "value": 12},
      {"measurement": "Fluorescence intesity", "setting": "serum of Breast Ca. patient #39, 1:100 dilution", "value": 20},
      {"measurement": "Fluorescence intesity", "setting": "serum of Breast Ca. patient #40, 1:100 dilution", "value": 10},
      {"measurement": "Fluorescence intesity", "setting": "serum of Breast Ca. patient #41, 1:100 dilution", "value": 214},
      {"measurement": "Fluorescence intesity", "setting": "serum of Breast Ca. patient #42, 1:100 dilution", "value": 12},
      {"measurement": "Fluorescence intesity", "setting": "serum of Breast Ca. patient #43, 1:100 dilution", "value": 12},
      {"measurement": "Fluorescence intesity", "setting": "serum of Breast Ca. patient #44, 1:100 dilution", "value": 0},
      {"measurement": "Fluorescence intesity", "setting": "serum of Breast Ca. patient #45, 1:100 dilution", "value": 18},
      {"measurement": "Fluorescence intesity", "setting": "serum of Colon Ca. patient #66, 1:100 dilution", "value": 0},
      {"measurement": "Fluorescence intesity", "setting": "serum of Colon Ca. patient #67, 1:100 dilution", "value": 0},
      {"measurement": "Fluorescence intesity", "setting": "serum of Colon Ca. patient #68, 1:100 dilution", "value": 0},
      {"measurement": "Fluorescence intesity", "setting": "serum of Colon Ca. patient #69, 1:100 dilution", "value": 0},
      {"measurement": "Fluorescence intesity", "setting": "serum of Colon Ca. patient #70, 1:100 dilution", "value": 0},
      {"measurement": "Fluorescence intesity", "setting": "serum of Colon Ca. patient #71, 1:100 dilution", "value": 26},
      {"measurement": "Fluorescence intesity", "setting": "serum of Gastric Ca. patient #56, 1:100 dilution", "value": 2},
      {"measurement": "Fluorescence intesity", "setting": "serum of Gastric Ca. patient #57, 1:100 dilution", "value": 0},
      {"measurement": "Fluorescence intesity", "setting": "serum of Gastric Ca. patient #58, 1:100 dilution", "value": 0},
      {"measurement": "Fluorescence intesity", "setting": "serum of Gastric Ca. patient #59, 1:100 dilution", "value": 15},
      {"measurement": "Fluorescence intesity", "setting": "serum of Gastric Ca. patient #60, 1:100 dilution", "value": 1},
      {"measurement": "Fluorescence intesity", "setting": "serum of Gastric Ca. patient #61, 1:100 dilution", "value": 8},
      {"measurement": "Fluorescence intesity", "setting": "serum of Gastric Ca. patient #62, 1:100 dilution", "value": 0},
      {"measurement": "Fluorescence intesity", "setting": "serum of Gastric Ca. patient #63, 1:100 dilution", "value": 0},
      {"measurement": "Fluorescence intesity", "setting": "serum of Gastric Ca. patient #64, 1:100 dilution", "value": 0},
      {"measurement": "Fluorescence intesity", "setting": "serum of Gastric Ca. patient #65, 1:100 dilution", "value": 0},
      {"measurement": "Fluorescence intesity", "setting": "serum of Healthy Donor #1, 1:100 dilution", "value": 0},
      {"measurement": "Fluorescence intesity", "setting": "serum of Healthy Donor #2, 1:100 dilution", "value": 35},
      {"measurement": "Fluorescence intesity", "setting": "serum of Healthy Donor #3, 1:100 dilution", "value": 0},
      {"measurement": "Fluorescence intesity", "setting": "serum of Healthy Donor #4, 1:100 dilution", "value": 0},
      {"measurement": "Fluorescence intesity", "setting": "serum of Healthy Donor #5, 1:100 dilution", "value": 0},
      {"measurement": "Fluorescence intesity", "setting": "serum of Healthy Donor #6, 1:100 dilution", "value": 0},
      {"measurement": "Fluorescence intesity", "setting": "serum of Healthy Donor #7, 1:100 dilution", "value": 0},
      {"measurement": "Fluorescence intesity", "setting": "serum of Healthy Donor #8, 1:100 dilution", "value": 361},
      {"measurement": "Fluorescence intesity", "setting": "serum of Healthy Donor #9, 1:100 dilution", "value": 39},
      {"measurement": "Fluorescence intesity", "setting": "serum of Healthy Donor #10, 1:100 dilution", "value": 0},
      {"measurement": "Fluorescence intesity", "setting": "serum of Pancreas Ca. patient #46, 1:100 dilution", "value": 0},
      {"measurement": "Fluorescence intesity", "setting": "serum of Pancreas Ca. patient #47, 1:100 dilution", "value": 6},
      {"measurement": "Fluorescence intesity", "setting": "serum of Pancreas Ca. patient #48, 1:100 dilution", "value": 369},
      {"measurement": "Fluorescence intesity", "setting": "serum of Pancreas Ca. patient #49, 1:100 dilution", "value": 0},
      {"measurement": "Fluorescence intesity", "setting": "serum of Pancreas Ca. patient #50, 1:100 dilution", "value": 0},
      {"measurement": "Fluorescence intesity", "setting": "serum of Pancreas Ca. patient #51, 1:100 dilution", "value": 0},
      {"measurement": "Fluorescence intesity", "setting": "serum of Pancreas Ca. patient #52, 1:100 dilution", "value": 100},
      {"measurement": "Fluorescence intesity", "setting": "serum of Pancreas Ca. patient #53, 1:100 dilution", "value": 0},
      {"measurement": "Fluorescence intesity", "setting": "serum of Pancreas Ca. patient #54, 1:100 dilution", "value": 0},
      {"measurement": "Fluorescence intesity", "setting": "serum of Pancreas Ca. patient #55, 1:100 dilution", "value": 0},
      {"measurement": "Fluorescence intesity", "setting": "serum of Uterine cervical Ca. patient #1, 1:100 dilution", "value": 11},
      {"measurement": "Fluorescence intesity", "setting": "serum of Uterine cervical Ca. patient #2, 1:100 dilution", "value": 0},
      {"measurement": "Fluorescence intesity", "setting": "serum of Uterine cervical Ca. patient #3, 1:100 dilution", "value": 0},
      {"measurement": "Fluorescence intesity", "setting": "serum of Uterine cervical Ca. patient #4, 1:100 dilution", "value": 0},
      {"measurement": "Fluorescence intesity", "setting": "serum of Uterine cervical Ca. patient #5, 1:100 dilution", "value": 0},
      {"measurement": "Fluorescence intesity", "setting": "serum of Uterine cervical Ca. patient #6, 1:100 dilution", "value": 1226},
      {"measurement": "Fluorescence intesity", "setting": "serum of Uterine cervical Ca. patient #7, 1:100 dilution", "value": 26},
      {"measurement": "Fluorescence intesity", "setting": "serum of Uterine cervical Ca. patient #8, 1:100 dilution", "value": 26},
      {"measurement": "Fluorescence intesity", "setting": "serum of Uterine cervical Ca. patient #9, 1:100 dilution", "value": 58},
      {"measurement": "Fluorescence intesity", "setting": "serum of Uterine cervical Ca. patient #10, 1:100 dilution", "value": 14},
      {"measurement": "Fluorescence intesity", "setting": "serum of Uterine cervical Ca. patient #11, 1:100 dilution", "value": 33},
      {"measurement": "Fluorescence intesity", "setting": "serum of Uterine cervical Ca. patient #12, 1:100 dilution", "value": 33},
      {"measurement": "Fluorescence intesity", "setting": "serum of Uterine cervical Ca. patient #13, 1:100 dilution", "value": 397},
      {"measurement": "Fluorescence intesity", "setting": "serum of Uterine cervical Ca. patient #14, 1:100 dilution", "value": 26},
      {"measurement": "Fluorescence intesity", "setting": "serum of Uterine cervical Ca. patient #15, 1:100 dilution", "value": 136},
      {"measurement": "Fluorescence intesity", "setting": "serum of Uterine cervical Ca. patient #16, 1:100 dilution", "value": 145},
      {"measurement": "Fluorescence intesity", "setting": "serum of Uterine cervical Ca. patient #17, 1:100 dilution", "value": 72},
      {"measurement": "Fluorescence intesity", "setting": "serum of Uterine cervical Ca. patient #18, 1:100 dilution", "value": 71},
      {"measurement": "Fluorescence intesity", "setting": "serum of Uterine cervical Ca. patient #19, 1:100 dilution", "value": 92},
      {"measurement": "Fluorescence intesity", "setting": "serum of Uterine cervical Ca. patient #20, 1:100 dilution", "value": 85},
      {"measurement": "Fluorescence intesity", "setting": "serum of Uterine cervical Ca. patient #21, 1:100 dilution", "value": 28},
      {"measurement": "Fluorescence intesity", "setting": "serum of Uterine cervical Ca. patient #22, 1:100 dilution", "value": 28},
      {"measurement": "Fluorescence intesity", "setting": "serum of Uterine cervical Ca. patient #23, 1:100 dilution", "value": 82},
      {"measurement": "Fluorescence intesity", "setting": "serum of Uterine cervical Ca. patient #24, 1:100 dilution", "value": 2650},
      {"measurement": "Fluorescence intesity", "setting": "serum of Uterine cervical Ca. patient #25, 1:100 dilution", "value": 17},
      {"measurement": "Fluorescence intesity", "setting": "serum of Uterine cervical Ca. patient #26, 1:100 dilution", "value": 166},
      {"measurement": "Fluorescence intesity", "setting": "serum of Uterine cervical Ca. patient #27, 1:100 dilution", "value": 33},
      {"measurement": "Fluorescence intesity", "setting": "serum of Uterine cervical Ca. patient #28, 1:100 dilution", "value": 139},
      {"measurement": "Fluorescence intesity", "setting": "serum of Uterine cervical Ca. patient #29, 1:100 dilution", "value": 21},
      {"measurement": "Fluorescence intesity", "setting": "serum of Uterine cervical Ca. patient #30, 1:100 dilution", "value": 50},
      {"measurement": "Fluorescence intesity", "setting": "serum of Uterine cervical Ca. patient #31, 1:100 dilution", "value": 107},
      {"measurement": "Fluorescence intesity", "setting": "serum of Uterine cervical Ca. patient #32, 1:100 dilution", "value": 18},
      {"measurement": "Fluorescence intesity", "setting": "serum of Uterine cervical Ca. patient #33, 1:100 dilution", "value": 191},
      {"measurement": "Fluorescence intesity", "setting": "serum of Uterine cervical Ca. patient #34, 1:100 dilution", "value": 17},
      {"measurement": "Fluorescence intesity", "setting": "serum of Uterine cervical Ca. patient #35, 1:100 dilution", "value": 21}
    ]}
  ]
}
